Marks after values point to notes of the source that are not given here.
Assays:
hepatitis B virus (HBV) [1] = experiment: Efficacy study in chronic viral hepatitis B, 62 patients (Tables 47-49); assay type: in vivo, human; conditions: month 1 (after treatment)
From the text: (§1) State of patient upon completion of treatment.

hepatitis B virus (HBV) [2] = experiment: as above; assay type: in vivo, human
hepatitis B virus (HBV) [3] = experiment: Efficacy study in acute viral hepatitis B with severe course, 35 patients (Tables 50-53); assay type: in vivo, human
From the text: as §1

hepatitis C virus (HCV) = experiment: Efficacy study in chronic viral hepatitis C, 74 patients (Tables 54-55)
[4] = month 2 (1 month after treatment)
[5] = month 4 (3 months after treatment)

CC(C)(C)NC(=O)[C@@H]1C[C@@H]2CCCC[C@@H]2CN1C[C@@H](O)[C@H](Cc1ccccc1)NC(=O)[C@H](CC(N)=O)NC(=O)c1ccc2ccccc2n1 [Invirasa]
ALT in Chronic HBV Infection (hepatitis B virus (HBV) [1]): **90.8 ± 5.5 U/L | HbsAg in Chronic HBV Infection (hepatitis B virus (HBV) [1]): **109.0 ± 54.5 ng/mL | PCR (%) in Chronic HBV Infection (hepatitis B virus (HBV) [1]): **70.0* % | ALT in Chronic HBV Infection (hepatitis B virus (HBV) [2]; Baseline (before treatment)): 165.7 ± 17.0 U/L | HbsAg in Chronic HBV Infection (hepatitis B virus (HBV) [2]; Baseline (before treatment)): 137.0 ± 20.6 ng/mL | PCR (%) in Chronic HBV Infection (hepatitis B virus (HBV) [2]; Baseline (before treatment)): 100% | ALT in Chronic HBV Infection (hepatitis B virus (HBV) [2]; [4]): **71.4 ± 6.5 U/L | HbsAg in Chronic HBV Infection (hepatitis B virus (HBV) [2]; [4]): **112.2 ± 22.2 ng/mL | PCR (%) in Chronic HBV Infection (hepatitis B virus (HBV) [2]; [4]): **60.0* % | ALT in Chronic HBV Infection (hepatitis B virus (HBV) [2]; [5]): **71.8 ± 7.4 U/L | HbsAg in Chronic HBV Infection (hepatitis B virus (HBV) [2]; [5]): **172.0 ± 14.5 ng/mL | PCR (%) in Chronic HBV Infection (hepatitis B virus (HBV) [2]; [5]): **60.0%

C[C@]12C=CC(=O)C=C1CC[C@@H]1[C@@H]2[C@@H](O)C[C@@]2(C)[C@H]1CC[C@]2(O)C(=O)CO [Prednisolone]
ALT in Severe HBV Infection (hepatitis B virus (HBV) [3]; Baseline (before treatment)): 1657.9 ± 96.5 U/L | Bilirubin in Severe HBV Infection (hepatitis B virus (HBV) [3]; Baseline (before treatment)): 313.9 ± 62.6 µmol/L | HbsAg in Severe HBV Infection (hepatitis B virus (HBV) [3]; Baseline (before treatment)): 189.7 ± 20.4 ng/mL | PCR (%) in Severe HBV Infection (hepatitis B virus (HBV) [3]; Baseline (before treatment)): 100% | ALT in Severe HBV Infection (hepatitis B virus (HBV) [3]; month 1 (after treatment)): **293.8 ± 18.8 U/L | Bilirubin in Severe HBV Infection (hepatitis B virus (HBV) [3]; month 1 (after treatment)): **86.9 ± 21.9 μmole/L | HbsAg in Severe HBV Infection (hepatitis B virus (HBV) [3]; month 1 (after treatment)): **97.8 ± 18.6 ng/mL | PCR (%) in Severe HBV Infection (hepatitis B virus (HBV) [3]; month 1 (after treatment)): **66.7% | ALT in Severe HBV Infection (hepatitis B virus (HBV) [3]; [4]): **145.4 ± 15.5 U/L | Bilirubin in Severe HBV Infection (hepatitis B virus (HBV) [3]; [4]): **31.4 ± 14.6 μmole/L | HbsAg in Severe HBV Infection (hepatitis B virus (HBV) [3]; [4]): **87.7 ± 12.7 ng/mL | PCR (%) in Severe HBV Infection (hepatitis B virus (HBV) [3]; [4]): **66.7% | ALT in Severe HBV Infection (hepatitis B virus (HBV) [3]; [5]): **65.3 ± 15.7 U/L | Bilirubin in Severe HBV Infection (hepatitis B virus (HBV) [3]; [5]): **26.84 ± 13.99 μmole/L | HbsAg in Severe HBV Infection (hepatitis B virus (HBV) [3]; [5]): **76.6 ± 15.4 ng/mL | PCR (%) in Severe HBV Infection (hepatitis B virus (HBV) [3]; [5]): **53.3%

Cc1cn([C@H]2C[C@H](N=[N+]=[N-])[C@@H](CO)O2)c(=O)[nH]c1=O [Retrovir]
ALT in Chronic HCV Infection (hepatitis C virus (HCV); Baseline (before treatment)): 180 ± 20.0 U/L | ALT in Chronic HCV Infection (hepatitis C virus (HCV); month 1 (after treatment)): **132.0 ± 51.5 U/L | ALT in Chronic HCV Infection (hepatitis C virus (HCV); [4]): **108 ± 40.3 U/L | ALT in Chronic HCV Infection (hepatitis C virus (HCV); [5]): **90.0 ± 25.2 U/L

Nc1ccn([C@H]2CC[C@@H](CO)O2)c(=O)n1 [Zalzitabin]
PCR (%) in Chronic HCV Infection (hepatitis C virus (HCV); Baseline (before treatment)): 100% | PCR (%) in Chronic HCV Infection (hepatitis C virus (HCV); month 1 (after treatment)): **73.9* % | PCR (%) in Chronic HCV Infection (hepatitis C virus (HCV); [4]): **56.5* % | PCR (%) in Chronic HCV Infection (hepatitis C virus (HCV); [5]): **60.9* %

Cc1cn([C@H]2C[C@H](N=[N+]=[N-])[C@@H](CO)O2)c(=O)[nH]c1=O [Zidovudine]
PCR (%) in Chronic HCV Infection (hepatitis C virus (HCV); Baseline (before treatment)): 100% | PCR (%) in Chronic HCV Infection (hepatitis C virus (HCV); month 1 (after treatment)): **54.5* % | PCR (%) in Chronic HCV Infection (hepatitis C virus (HCV); [4]): **63.6* % | PCR (%) in Chronic HCV Infection (hepatitis C virus (HCV); [5]): **59.1* %

Source: patent US20030073618A1, “Compounds comprising disulfide-containing peptides and nitrogenous bases, and medical uses thereof” (priority 2001, published 2003)
